In patent US4462819A, “Urease inhibited urea based fertilizer compositions containing organo boron acid compounds” (Allied Corporation, priority 1983, dated 1984):

Tests used:
urease [1] = assay: Evaluation of urease inhibiting activity in soil, Test B (test compound incubated in soil 3 days before urea was added); assay type: biochemical; set-up: key: A=excellent inhibition; B=partial inhibition; C=no inhibition; details: 800 μg test compound incubated in 20 g soil (Cazenovia sandy loam pH 7.2) for 3 days before urea was added; analysis 3 days after urea addition; relative to control without test compound
urease [2] = assay: Evaluation of urease inhibiting activity in soil, Test A (test compound and urea applied together); assay type: biochemical; set-up: key: A=excellent inhibition; B=partial inhibition; C=no inhibition; details: 800 μg test compound and 42.8 mg urea in 20 g air-dry soil (Cazenovia sandy loam pH 7.2), 25° C., 3 days; remaining urea, relative to control without test compound
Experimental: Certain selected organo boron acid compounds were evaluated for urease inhibiting activity. The tests were run in a New York soil (Cazenovia sandy loam pH 7.2). Test A evaluations (run in triplicate) consisted of applying 800 μg of test compound in 5 mL water and 42.8 mg urea in 1 mL water to 20 g air-dry soil in a glass bottle. The bottle was capped with perforated aluminum foil and incubated at 25° C. for 3 days prior to extraction with a 100 mL 2M KCL solution containing 0.5 mg phenylmercuric acetate. The extracts were then analyzed for remaining urea using an autoanalyzer.

Structure (SMILES)	% INHIBITION (TEST B) (urease [1])	% INHIBITION (TEST A) (urease [2])
Nc1ccccc1B(O)O [X, 2-Aminobenzeneboronic Acid]	A	C
Nc1ccc(B(O)O)cc1 [XII, 4-Aminobenzeneboronic Acid]	A	B
Cl.ONc1ccccc1B(O)O [XIII, 2-Hydroxylaminobenzeneboronic Acid Hydrochloride]	A	C
Cl.ONc1cccc(B(O)O)c1 [XIV, 3-Hydroxylaminobenzeneboronic Acid Hydrochloride]	B	B
OB(O)c1cccc(O)c1 [XIX, 3-Hydroxybenzeneboronic Acid]	A	B
Cl.ONc1ccc(B(O)O)cc1 [XV, 4-Hydroxylaminobenzeneboronic Acid Hydrochloride]	A	A
NC(=O)Nc1cccc(B(O)O)c1 [XVI, 3-Ureidophenylboric Acid]	B	C
OB1OCc2ccccc21 [XVII, Borphthalide]	A	C
OB1ON=Cc2ccccc21 [XVIII, 4-Hydroxy-4,3-boroxaroisoquinoline]	B	B
